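How tested: cells in 96-well plates exposed to compound for 48 hours at five concentrations. GI50: concentration for 50% inhibition of growth. TGI: total growth inhibition.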

Some test systems named below: OVCAR-5 ovarian; HCT-15 colon; HCT-116 colon; SF-539 CNS; HOP-92 NSCLC; HL-60(TB) leukemia; SW-620 colon; NCI-H460 lung; UO-31 renal; NCI-H522 lung.
Common to all, as to experiment: inhibition of tumour cell growth, NCI panel, 48 h

Turning to `Oc1ccc(CCNc2nc3ccccc3c3[nH]c4ccccc4c23)cc1O`, the GI50 is 14 µM with OVCAR-5 ovarian; 1.9 µM in the test on HCT-15 colon; 1.4 µM in the test with HCT-116 colon; 2.02 µM in the test on SF-539 CNS; 1.31 µM in the test on HOP-92 NSCLC; 2.07 µM in the test with HL-60(TB) leukemia. The figures for the GI50 in the test on SW-620 colon and in the test on NCI-H460 lung were 1.66 µM and 2.17 µM, respectively. Besides, the TGI in the test on OVCAR-5 ovarian is 26.9 µM; in the test with HCT-15 colon it was 3.95 µM; in the test on HCT-116 colon it was 2.7 µM; with SF-539 CNS, 3.6 µM; in the test on HOP-92 NSCLC, 2.95 µM; in the test on HL-60(TB) leukemia, 4.36 µM. In addition, the TGI in the test with SW-620 colon is 3.44 µM; in the test with NCI-H460 lung, 5.54 µM.

Turning to `CCC(=O)N1C(=S)SC[C@H]1C(=O)OC`, the TGI in the test with OVCAR-5 ovarian, in the test with HCT-116 colon, in the test on SF-539 CNS, with UO-31 renal, in the test on HOP-92 NSCLC and in the test with HL-60(TB) leukemia was more than 100 µM each time. The TGI in the test with SW-620 colon and in the test with NCI-H522 lung was more than 100 µM in each case.

Take `CC[O-].CC[O-].[O-]c1ccccc1C=NC12CC3CC(CC(C3)C1)C2.[O-]c1ccccc1C=NC12CC3CC(CC(C3)C1)C2.[Ti+4]`: the GI50 was more than 100 µM in the test on OVCAR-5 ovarian; 39.6 µM in the test with HCT-116 colon; more than 100 µM with SF-539 CNS; 92.3 µM with UO-31 renal; 34.4 µM in the test on HOP-92 NSCLC; 52.4 µM in the test with HL-60(TB) leukemia. Moreover, the GI50 in the test with SW-620 colon and with NCI-H460 lung was more than 100 µM in each case. Also, the TGI in the test with OVCAR-5 ovarian, in the test on HCT-116 colon, with SF-539 CNS, in the test with UO-31 renal, in the test on HOP-92 NSCLC and in the test with HL-60(TB) leukemia was more than 100 µM in each case. Also, the TGI in the test on SW-620 colon and with NCI-H460 lung was more than 100 µM in each case.

In the case of `CC(C)CC(NC(=O)C(O)C(N)Cc1ccccc1)C(=O)O` (stereo unspecified), the TGI in the test on OVCAR-5 ovarian, in the test on HCT-15 colon, in the test on HCT-116 colon, in the test on SF-539 CNS, in the test on UO-31 renal and in the test with HOP-92 NSCLC was more than 100 µM throughout. The TGI in the test with HL-60(TB) leukemia, in the test with SW-620 colon and with NCI-H460 lung was more than 100 µM throughout.

Regarding `O=[N+]([O-])c1ccc(Cl)c(C2CC(c3cccc4ccccc34)=Nc3ccccc3S2=O)c1` (stereo unspecified), the TGI is 76.1 µM in the test with OVCAR-5 ovarian; more than 100 µM in the test on HCT-15 colon; 35.1 µM with HCT-116 colon; 19.1 µM in the test with SF-539 CNS; more than 46.7 µM with UO-31 renal; 22.8 µM in the test with HOP-92 NSCLC. The values for the TGI with HL-60(TB) leukemia, in the test with SW-620 colon and in the test with NCI-H460 lung were 34.1 µM, 33.5 µM and more than 76.4 µM, respectively.

Turning to `O=NN(CC1(O)OCC(O)C(O)C1O)C(Cc1c[nH]c2ccccc12)C(=O)O` (stereo unspecified), the TGI in the test on OVCAR-5 ovarian, in the test on HCT-116 colon, in the test with SF-539 CNS, in the test on HOP-92 NSCLC, with HL-60(TB) leukemia and in the test with SW-620 colon was more than 100 µM each time. Moreover, the TGI in the test on NCI-H460 lung and in the test with NCI-H522 lung was more than 100 µM throughout.

For the compound `COc1cccc(C2CC(C)(O)Oc3cc4c(cc32)OCO4)c1` (stereo unspecified), the TGI in the test on OVCAR-5 ovarian is more than 100 µM; with HCT-15 colon, 83.3 µM; in the test on HCT-116 colon it was 28.5 µM; with UO-31 renal, 72.2 µM; with HOP-92 NSCLC, 93.3 µM; in the test with HL-60(TB) leukemia, more than 100 µM. Further, the results for the TGI in the test on SW-620 colon, with NCI-H460 lung and in the test on NCI-H522 lung were more than 100 µM, 53.6 µM and 30.6 µM, respectively.

In the case of `C=C1C(=O)O[C@@H]2C[C@@]3(C)CCC[C@H](C)C3=C[C@H]12` (tested in a mixture with another compound), the TGI was 15.8 µM in the test on OVCAR-5 ovarian; 4.39 µM in the test on HCT-15 colon; 2.93 µM in the test with HCT-116 colon; 4.85 µM in the test on SF-539 CNS; 3.57 µM with UO-31 renal; 3.48 µM with HOP-92 NSCLC. The TGI was 3.97 µM in the test on SW-620 colon, 14.3 µM in the test with NCI-H460 lung and 2.94 µM in the test on NCI-H522 lung.

As to `O=C(O)c1c2c(c(O)c3c1CN(C1CCCCC1)CO3)OCN(C1CCCCC1)C2`, the TGI in the test with OVCAR-5 ovarian, in the test on HCT-15 colon, in the test with HCT-116 colon, in the test on SF-539 CNS, with UO-31 renal and in the test on HOP-92 NSCLC was more than 100 µM each time. For the same compound, the TGI was 52.5 µM in the test with SW-620 colon, 35.1 µM in the test with NCI-H460 lung and 95.9 µM in the test with NCI-H522 lung.

With `O=C1CN=C(c2ccccc2)c2ccncc2N1`, the TGI in the test with OVCAR-5 ovarian, with HCT-116 colon, in the test on SF-539 CNS, in the test with UO-31 renal, with HOP-92 NSCLC and with HL-60(TB) leukemia was more than 100 µM each time. Moreover, the TGI with SW-620 colon and in the test with NCI-H522 lung was more than 100 µM in each case.

With `CCOc1ccc2c(c1)[n+]([O-])c(C(N)=O)c(N)[n+]2[O-]`, the TGI in the test on OVCAR-5 ovarian, with HCT-116 colon, with SF-539 CNS, with UO-31 renal, in the test on HOP-92 NSCLC and with HL-60(TB) leukemia was more than 100 µM throughout. The TGI in the test on SW-620 colon, in the test on NCI-H460 lung and in the test on NCI-H522 lung was more than 100 µM each time.

For the compound `Cc1cnoc1/N=C1\C=C(Nc2oncc2C)C(=O)c2ccccc21`, the TGI in the test with OVCAR-5 ovarian, with HCT-15 colon, with HCT-116 colon, with SF-539 CNS, with UO-31 renal and in the test on HOP-92 NSCLC was more than 100 µM each time. Also, the TGI with HL-60(TB) leukemia, with SW-620 colon and with NCI-H460 lung was more than 100 µM each time.

`O=c1oc2ccccc2cc1P(=O)(O)O`: the TGI in the test with OVCAR-5 ovarian, in the test with HCT-15 colon, in the test on HCT-116 colon, with SF-539 CNS, with HOP-92 NSCLC and in the test on HL-60(TB) leukemia was more than 100 µM each time. Besides, the TGI with SW-620 colon, in the test with NCI-H460 lung and in the test on NCI-H522 lung was more than 100 µM each time.

With `CC1=NC2(C(=O)O)C3(C(=O)O)N=C(C)OC3(C(F)(F)F)C2(C(F)(F)F)O1` (stereo unspecified), the TGI in the test on OVCAR-5 ovarian, with HCT-116 colon, in the test with SF-539 CNS, in the test on UO-31 renal, in the test with HOP-92 NSCLC and with HL-60(TB) leukemia was more than 100 µM throughout. Besides, the TGI in the test on SW-620 colon, in the test on NCI-H460 lung and with NCI-H522 lung was more than 100 µM throughout.

On to `NCCNCCNCc1c2ccccc2c(CNCCNCCN)c2ccccc12`, for which the TGI in the test on OVCAR-5 ovarian was more than 100 µM; with HCT-15 colon, more than 100 µM; in the test with HCT-116 colon, more than 100 µM; with SF-539 CNS, more than 100 µM; with UO-31 renal it was more than 100 µM; in the test with HOP-92 NSCLC, 84.1 µM. For the same compound, the TGI in the test with HL-60(TB) leukemia, with SW-620 colon and in the test with NCI-H460 lung was more than 100 µM in each case.

Values taken from PubChem BioAssay (NCI).
